Measured values from PMC10119423, “From PERK to RIPK1: Design, synthesis and evaluation of novel potent and selective necroptosis inhibitors” (Frontiers in Chemistry, 2023).

Columns and labels:
RIPK1 (h) = target: T1, RIPK1 (h) (Homo sapiens, UniProt Q13546); assay: KinaseProfiler assay (Eurofins Cerep), hRIPK1 inhibition; assay type: biochemical; conditions: 9 concentrations (0.0001 μM–1.0 μM), 10 μM ATP
T1 construct: purchased Eurofins Cerep (KinaseProfiler service)
T1 sequence (Q13546 1-671): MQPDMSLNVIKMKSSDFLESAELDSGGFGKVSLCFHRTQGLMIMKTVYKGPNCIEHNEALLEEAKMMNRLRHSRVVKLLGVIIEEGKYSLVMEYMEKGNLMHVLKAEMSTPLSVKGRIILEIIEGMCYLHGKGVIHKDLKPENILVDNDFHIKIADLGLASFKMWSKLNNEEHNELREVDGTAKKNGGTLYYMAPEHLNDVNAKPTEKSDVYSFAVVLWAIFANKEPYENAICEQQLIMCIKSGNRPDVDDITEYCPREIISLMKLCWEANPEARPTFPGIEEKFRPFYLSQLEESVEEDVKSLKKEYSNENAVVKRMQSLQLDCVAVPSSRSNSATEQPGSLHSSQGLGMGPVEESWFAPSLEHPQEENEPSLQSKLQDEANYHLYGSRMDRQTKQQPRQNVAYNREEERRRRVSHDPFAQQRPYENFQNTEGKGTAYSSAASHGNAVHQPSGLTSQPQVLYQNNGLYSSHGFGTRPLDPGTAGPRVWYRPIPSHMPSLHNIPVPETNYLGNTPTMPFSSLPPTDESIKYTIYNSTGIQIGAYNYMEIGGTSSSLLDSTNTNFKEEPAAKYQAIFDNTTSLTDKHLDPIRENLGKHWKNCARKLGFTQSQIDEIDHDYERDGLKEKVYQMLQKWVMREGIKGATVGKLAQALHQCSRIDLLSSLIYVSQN
Protocol: RIPK1 (h) is incubated with 8 mM MOPS pH 7.0, 0.2 mM EDTA, 0.33 mg/mL myelin basic protein, 10 mM Magnesium acetate and [γ-^33P-ATP] (specific activity and concentration as required). The reaction is initiated by the addition of the Mg/ATP mix. After incubation for 120 min at room temperature, the reaction is stopped by the addition of phosphoric acid to a concentration of 0.5%.

PERK = target: T2, PERK (Mus musculus, UniProt Q9Z2B5); assay: PERK autophosphorylation by Western blot in tunicamycin-stimulated immortalized MEFs; assay type: cell-based
T2 construct: Immortalized MEFs were pretreated for 30 min with increasing concentrations of GSK’157 and the indicated compounds and stimulated with tunicamycin; endogenous in cells; host or cells: immortalized mouse embryonic fibroblasts (MEFs, C57Bl6/J)
T2 sequence (Q9Z2B5 29-1114): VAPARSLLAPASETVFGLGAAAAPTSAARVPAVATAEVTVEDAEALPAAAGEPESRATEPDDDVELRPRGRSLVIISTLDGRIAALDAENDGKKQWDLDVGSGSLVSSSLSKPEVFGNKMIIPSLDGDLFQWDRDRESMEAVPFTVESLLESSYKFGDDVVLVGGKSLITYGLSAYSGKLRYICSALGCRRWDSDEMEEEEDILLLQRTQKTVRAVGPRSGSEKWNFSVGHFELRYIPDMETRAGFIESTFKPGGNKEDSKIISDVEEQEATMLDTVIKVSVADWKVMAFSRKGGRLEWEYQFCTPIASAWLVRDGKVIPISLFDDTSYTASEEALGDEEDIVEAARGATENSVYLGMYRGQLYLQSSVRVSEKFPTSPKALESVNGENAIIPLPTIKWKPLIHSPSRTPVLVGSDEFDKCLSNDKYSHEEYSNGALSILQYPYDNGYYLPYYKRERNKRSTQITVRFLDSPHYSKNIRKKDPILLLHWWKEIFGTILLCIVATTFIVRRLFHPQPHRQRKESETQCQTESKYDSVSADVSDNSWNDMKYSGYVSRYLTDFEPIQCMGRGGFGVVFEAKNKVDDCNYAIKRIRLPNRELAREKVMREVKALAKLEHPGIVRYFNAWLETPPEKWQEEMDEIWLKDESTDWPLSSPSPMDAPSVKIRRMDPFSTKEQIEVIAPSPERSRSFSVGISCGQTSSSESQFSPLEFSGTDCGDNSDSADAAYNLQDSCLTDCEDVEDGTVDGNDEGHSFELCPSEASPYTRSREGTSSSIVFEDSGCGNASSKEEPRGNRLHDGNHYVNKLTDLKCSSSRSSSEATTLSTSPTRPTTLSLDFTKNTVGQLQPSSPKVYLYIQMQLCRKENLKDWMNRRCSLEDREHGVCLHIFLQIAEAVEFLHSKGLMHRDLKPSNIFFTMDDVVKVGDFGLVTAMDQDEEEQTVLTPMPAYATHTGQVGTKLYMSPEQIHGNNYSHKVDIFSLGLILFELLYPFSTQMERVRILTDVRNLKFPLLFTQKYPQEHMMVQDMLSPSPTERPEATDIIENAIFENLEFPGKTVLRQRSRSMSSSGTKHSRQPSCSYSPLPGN
Protocol: MEFs were seeded in 6-well plates at a density of 300.000 cells/well in 2 mL. The next day, the cells were suspended in 1 mL of medium and pre-treated for 30 min with the indicated compounds at 1/5 dilutions series for PERK ranging from 5 to 0.04 µM and 1 μg/mL of Tm followed by 4 h treatment with 20 ng/mL of hTNF. For RIPK1, the cells were pre-treated at 1/10 dilutions series ranging from 10 to 0.01 nM, 50 µM zVAD.fmk and 1 µM TAKi before stimulation with 20 ng/mL of hTNF for 2.5 h. Then, the cells were washed two times with 1 mL of ice-cold PBS before lysis in 0.2 mL of Laemmli buffer 1x (10% (w/v) SDS, 50% glycerol, 0.5% bromophenol blue, 250 mM Tris–HCl pH 6.8) and 250 mM of dithiothreitol (DTT). The cell lysate was then collected and boiled at 95 °C for 10min and stored at −20°C. Proteins expression was later monitored by immunoblotting.
Their activities were evaluated by comparing the intensity of the signal to unstimulated MEFs (considered as zero phosphorylation) and Tunicamycin stimulated cells (considered as 100% PERK phosphorylation). […] The MEFs were pre-incubated for 30 min with the different compounds (0.01 nM–1000 nM) and then stimulated with human TNF (20 ng/mL) for 2.5 h. Similar to the PERK assessment, IC50 values for RIPK1 inhibition were estimated as a range of concentrations, and are reported in Table 1.

IC50 (RIPK1 (h)): 139 nM
SMILES: Cn1cc(-c2ccc3c(c2F)CCN3C(=O)Cc2ccc(C(F)(F)F)cn2)c2c(N)ncnc21 [Compound 22]
PERK inhibition at the tested concentrations (in words) (PERK; MEFs, Western blot, 0.04, 0.2, 1 and 5 µM, highest concentration tested 5 µM): no PERK inhibition | IC50 (PERK; immortalized MEFs, 30 min pretreatment, tunicamycin 1 μg/ml for 4 h, PERK autophosphorylation, read-out: PERK inhibition (IC50 estimated from a Western blot)): > 5000 nM
